Read-outs that look alike come from different tables or passages of the source.
Key:
B-lineage ALL cells = assay: cells; settings: Homo sapiens
Excerpt: Blood and bone marrow samples were obtained from 35 patients with B-lineage ALL (Table SI) treated at the National Cancer Institute (NCI), St Jude Children's Research Hospital (SJCRH) or Johns Hopkins Hospital (JHH) with informed consent. The majority (n=22) were obtained from individuals with multiply relapsed ALL who were referred to the NCI for Phase I clinical trial participation. Thirteen patient samples from initial diagnosis were randomly selected from those available in the tumor banks at SJCRH and JHH. Thirty-three cases were characterized as pre-B ALL by flow cytometry and two as Burkitt-type/mature B-cell ALL. In all cases, >80% blasts expressed CD19 and CD22 antigens by flow cytometry. Cells were cryopreserved in RPMI-1640 medium with 10% fetal bovine serum (FBS) and 10% dimethyl sulfoxide.
Briefly, human bone marrow stromal cells that had been immortalized by telomerase transfection (developed at St Jude Children's Research Hospital) were cultured in RPMI-1640 medium (Invitrogen, Carlsbad, Calif., USA) with 10% fetal calf serum (Sigma-Aldrich, St Louis, Mo., USA). 2×10^4 Stromal cells were plated into each well of flat-bottomed 96-well plates and cultured until confluent. On day 1 of the assay, ALL cells were resuspended in RPMI-1640 medium, 10% heat-inactivated FBS, glutamine (1×) and sodium pyruvate (1×). 3×10^5 ALL cells were added to each well of stroma-coated plates. […] SS1P (50 ng/mL), an antimesothelin Pseudomonas immunotoxin, was used as a negative control. The cytotoxicity of dexamethasone (10 μmol/L) was also tested in this assay. Cells were incubated for a further 72 h in a humidified atmosphere at 37° C. with 5% CO2.
The cells were harvested by vigorous pipetting, transferred to Falcon tubes (Cat. No. 352052; BD Biosciences, San Jose, Calif., USA) and labelled with mouse anti-human CD19 antibody conjugated to fluorescein isothiocyanate (Cat. No. 555412; BD Pharmingen, San Jose, Calif., USA). […] The cells were analysed with a FACScalibur flow cytometer in combination with CellQuest (Becton Dickinson, Franklin Lakes, N.J., USA) and FlowJo software (Tree Star Inc., Ashland, Oreg., USA).
Viability was assessed by setting gates based on the light scatter properties of the blasts. Due to spontaneous cell death, the relative percentage of viable cells at the end of the assay was calculated using the following formula: (no. of CD19^+ viable cells recovered in test well/no. of CD19^+ viable cells in untreated well×100). […]
An exact Wilcoxon rank sum test was used to determine the statistical significance of the difference in unpaired observations between two groups of pediatric patients. […] Correlations between parameters were evaluated using Spearman rank correlation analysis.

[1] = system: human bone marrow stromal cells; settings: 10 μmol/L, 72 h
Description: 2×10^4 Stromal cells were plated into each well of flat-bottomed 96-well plates and cultured until confluent. On day 1 of the assay, ALL cells were resuspended in RPMI-1640 medium, 10% heat-inactivated FBS, glutamine (1×) and sodium pyruvate (1×). 3×10^5 ALL cells were added to each well of stroma-coated plates. […] SS1P (50 ng/mL), an antimesothelin Pseudomonas immunotoxin, was used as a negative control. The cytotoxicity of dexamethasone (10 μmol/L) was also tested in this assay. Cells were incubated for a further 72 h in a humidified atmosphere at 37° C. with 5% CO2.
At the end of the assay, the stromal cells were incubated with WST-1.

C[C@@H]1C[C@H]2[C@@H]3CCC4=CC(=O)C=C[C@]4(C)[C@@]3(F)[C@@H](O)C[C@]2(C)[C@@]1(O)C(=O)CO [dexamethasone, Dexamethasone]
viability at 10 µM (B-lineage ALL cells; 72 h, read-out: percentage of viable ALL cells, range, 10 μmol/l, 72 h): 4 to 158%
viability at 10 µM (B-lineage ALL cells; read-out: percentage of viable ALL cells, median, 10 μmol/l, ALL samples from diagnosis): 29%
viability at 10 µM (B-lineage ALL cells; read-out: percentage of viable ALL cells, median, 10 μmol/l, all samples): 40%
viability at 10 µM (B-lineage ALL cells; read-out: percentage of viable ALL cells, median, 10 μmol/l, relapse samples): 42%
stromal cells compared to untreated controls (WST-1) [1]: no difference
